The Papp A→B is how fast a substance crosses the layer from the apical side.

These results are taken from ChEMBL document CHEMBL4673395, “Discovery of PIPE-359, a Brain-Penetrant, Selective M Receptor Antagonist with Robust Efficacy in Murine MOG-EAE” (ACS Med Chem Lett, 2021).

Data set [1] deals with T1, Muscarinic acetylcholine receptor M1 (Homo sapiens, UniProt P11229).
T1 sequence (P11229 whole entry): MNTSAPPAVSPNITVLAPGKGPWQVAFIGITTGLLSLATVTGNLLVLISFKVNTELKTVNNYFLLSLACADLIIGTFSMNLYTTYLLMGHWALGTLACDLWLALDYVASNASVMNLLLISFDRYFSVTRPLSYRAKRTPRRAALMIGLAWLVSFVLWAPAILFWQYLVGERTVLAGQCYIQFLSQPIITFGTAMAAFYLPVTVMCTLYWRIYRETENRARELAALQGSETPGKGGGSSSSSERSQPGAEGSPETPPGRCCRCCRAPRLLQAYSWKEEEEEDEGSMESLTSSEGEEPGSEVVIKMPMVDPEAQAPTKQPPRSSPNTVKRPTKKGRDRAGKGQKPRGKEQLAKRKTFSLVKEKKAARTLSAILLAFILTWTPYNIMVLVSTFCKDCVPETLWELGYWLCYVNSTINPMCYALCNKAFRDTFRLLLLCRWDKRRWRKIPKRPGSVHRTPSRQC
The experiment in a line: Antagonist activity at human recombinant muscarinic receptor M1 expressed in CHO-K1 cells assessed as EC80 acetylcholine-induced calcium flux incubated for 30 mins. Format: functional, cell-based. In general terms: Calcium flux is commonly read through the fluorescence of an indicator in the cells.

Data set [2] is described as follows: Metabolic stability in rat liver microsomes assessed as parent compound remaining at 1 uM measured at 15 mins by LC-MS/MS analysis. The following applies: read-out: Stabilty. Format: ADME, Microsome.
Data set [3] addresses Muscarinic acetylcholine receptor M3 (Homo sapiens, UniProt P20309). The experiment in a line: Antagonist activity at human recombinant muscarinic receptor M3 expressed in CHO-K1 cells assessed as EC80 acetylcholine-induced calcium flux incubated for 30 mins. Format: functional, cell-based. The following applies: read-out: pIC50 (converted).
Data set [4] deals with T2, Muscarinic acetylcholine receptor M2 (Homo sapiens, UniProt P08172).
T2 sequence (P08172 whole entry): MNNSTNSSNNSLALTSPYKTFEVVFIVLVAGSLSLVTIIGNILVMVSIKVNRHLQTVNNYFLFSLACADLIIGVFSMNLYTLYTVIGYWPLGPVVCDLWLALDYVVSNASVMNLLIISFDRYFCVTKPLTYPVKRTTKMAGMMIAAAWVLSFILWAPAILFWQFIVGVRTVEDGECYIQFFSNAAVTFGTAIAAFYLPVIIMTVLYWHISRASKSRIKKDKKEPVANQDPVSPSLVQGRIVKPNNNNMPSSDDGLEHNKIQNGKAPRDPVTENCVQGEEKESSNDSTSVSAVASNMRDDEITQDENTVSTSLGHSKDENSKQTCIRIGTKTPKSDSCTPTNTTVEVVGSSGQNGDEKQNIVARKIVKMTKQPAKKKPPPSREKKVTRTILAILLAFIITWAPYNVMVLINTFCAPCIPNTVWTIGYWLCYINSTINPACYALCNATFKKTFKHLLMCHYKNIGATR
The experiment in a line: Antagonist activity at human recombinant muscarinic receptor M2 expressed in CHO-K1 cells assessed as EC80 acetylcholine-induced calcium flux incubated for 30 mins. Format: functional, cell-based. Particulars: read-out: pIC50 (converted).

Data set [5] can be described thus: Apparant permeability across apical to basolateral side in dog MDCK-MDR1 cells. Format: ADME, cell-based, Canis lupus familiaris.

Sequence of Muscarinic acetylcholine receptor M3 (P20309 whole entry): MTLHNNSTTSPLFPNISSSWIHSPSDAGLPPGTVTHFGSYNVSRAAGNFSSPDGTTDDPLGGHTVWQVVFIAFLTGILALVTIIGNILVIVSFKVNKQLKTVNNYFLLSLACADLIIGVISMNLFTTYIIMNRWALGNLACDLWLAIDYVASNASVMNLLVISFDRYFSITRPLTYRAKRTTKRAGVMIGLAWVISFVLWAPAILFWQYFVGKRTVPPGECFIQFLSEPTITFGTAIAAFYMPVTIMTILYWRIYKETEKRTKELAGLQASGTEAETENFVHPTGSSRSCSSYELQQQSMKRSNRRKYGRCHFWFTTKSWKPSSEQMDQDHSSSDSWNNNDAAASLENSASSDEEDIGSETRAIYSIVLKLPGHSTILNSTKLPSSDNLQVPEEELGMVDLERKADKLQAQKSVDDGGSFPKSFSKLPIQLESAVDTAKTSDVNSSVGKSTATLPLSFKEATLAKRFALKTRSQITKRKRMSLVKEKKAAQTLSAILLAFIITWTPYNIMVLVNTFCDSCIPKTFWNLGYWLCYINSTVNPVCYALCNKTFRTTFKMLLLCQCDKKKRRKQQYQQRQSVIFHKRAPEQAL

`Cc1cc(F)cnc1N1CCN(C(=O)CCCc2cccc3ncc(CO)cc23)[C@@H](C)C1`: the IC50 in data set [1] (read-out: IC50) was greater than 170 nM; in data set [1] (read-out: pIC50 (converted)), 158 nM. Further, in data set [2], the remaining at 0.25 h, 1 µM was 1%.
`Cc1cc(F)cnc1N1CCN(C(=O)CCCc2cccc3ncccc23)[C@@H](C)C1`: the IC50 in data set [3] is 1260 nM; in data set [4], 2000 nM. Further, the remaining at 0.25 h, 1 µM in data set [2] stood at 0.2%. For the same molecule, in data set [5], the Papp A→B was found to be 8 ×10⁻⁶ cm/s.
Consider `CC1(C)CN(c2ccc(C#N)cn2)CCN1C(=O)CCS(=O)(=O)c1cccc2ncsc12`, for which the IC50 in data set [1] (read-out: IC50) amounted to 4100 nM.
For `Cc1cc(F)cnc1N1CCN(C(=O)CCCc2cccc3ncccc23)[C@H](C)C1`, the IC50 is 501 nM in data set [3] and 631 nM in data set [4].
As for `N#Cc1ccc(N2C3COCC2CN(C(=O)CCS(=O)(=O)c2cccc4ncsc24)C3)nc1`, the IC50 in data set [1] (read-out: IC50) came out at 31 nM.
Take `Cc1cc(F)cnc1N1CCN(C(=O)CCCc2cccc3ncoc23)[C@@H](C)C1`: in data set [2], the remaining at 0.25 h, 1 µM turned out to be 0%.
As to `N#Cc1ccc(C2=CCN(C(=O)CCS(=O)(=O)c3cccc4ncsc34)CC2)nc1`, the IC50 in data set [1] (read-out: IC50) amounted to 80 nM.
The same measure, in the same setting: for `Cc1cc(F)cnc1N1CCCN(C(=O)CCCc2cccc3ncccc23)CC1` the value was 1400 nM; for `O=C(CCNS(=O)(=O)c1cccc2ncccc12)N1CCN(c2ccncc2)CC1`, 130 nM; for `N#Cc1ccc(N2CC3CCC(C2)N3C(=O)CCS(=O)(=O)c2cccc3ncsc23)nc1`, 8.7 nM.
With `O=C(CCS(=O)(=O)c1cccc2ncsc12)N1CCN(c2ccc(Cl)cn2)CC1`, in data set [1] (read-out: IC50), the IC50 stood at 160 nM. Also, the remaining at 0.25 h, 1 µM in data set [2] stood at 31%.
As to `Cc1cc(F)cnc1N1CCN(C(=O)COCc2cccc3ncsc23)[C@@H](C)C1`, in data set [1] (read-out: IC50), the IC50 amounted to 3600 nM.
With `O=C(CCCc1cccc2ncccc12)N1CC2(C1)CN(c1ccc(F)cn1)C2`, the figures for the IC50 in data set [1] (read-out: IC50) and in data set [1] (read-out: pIC50 (converted)) were greater than 20000 nM and greater than 10000 nM, respectively.
For the molecule `O=C(CCS(=O)(=O)c1cccc2ncsc12)N1CCN(c2ccc(C(F)(F)F)cn2)CC1`, the IC50 in data set [1] (read-out: IC50) was found to be 32 nM. In addition, the remaining at 0.25 h, 1 µM in data set [2] was 41%.
On to `N#Cc1ccc(C2CCN(C(=O)CCS(=O)(=O)c3cccc4ncsc34)CC2)nc1`, for which, in data set [1] (read-out: IC50), the IC50 was 19 nM.
Same read-out and setting: the value for `N#Cc1cnccc1N1CCN(C(=O)CCCc2cccc3ncccc23)CC1` was 1100 nM.
Same read-out and setting: for `CC1CN(c2ccc(C#N)cn2)CCN1C(=O)CCS(=O)(=O)c1cccc2ncsc12` (racemic) the value was 22 nM; for `Cc1cc(F)cnc1N1CCN(C(=O)CCCc2cccc3ncccc23)CC1`, 69 nM; for `Cc1ccncc1N1CCN(C(=O)CCS(=O)(=O)c2cccc3ncsc23)CC1`, 260 nM.
Same read-out and setting: the value for `Cc1cncc(Cl)c1N1CCN(C(=O)CCS(=O)(=O)c2cccc3ncsc23)CC1` was 8500 nM.
